Test results as given in patent publication US7531320B2, “Modulation of β-catenin/TCF-activated transcription” (priority 2003, dated 2009).

Legend:
[1] = Metabolism in human liver microsome (HPLC/MS); type: in vitro ADME; conditions: 5 minutes to 1 hour
Description: (§1) FIG. 10. Metabolism analysis of COMPOUND3 • A. The diode Array trace (upper panel) and the total ion current (lower panel) for COMPOUND3 and metabolites thereof in rat. • B. The diode Array trace (upper panel) and the total ion current (lower panel) for COMPOUND3 and metabolites thereof in human.
(§2) Metabolism of COMPOUND 3 was analyzed by incubating the compound with rat or human liver microsome for 5 minutes to 1 hour, fractioning extracts of treated microsome through HPLC and subjecting the fractions to MS analysis.

[2] = Bioavailability study in rat; type: in vivo; conditions: i.v and p.o, 10 mg/kg, 20% Tween 80
Description: (§3) Bioavailability of COMPOUND 3, COMPOUND 4 and COMPOUND 5 was studied in mouse and rat. All the compounds were administered (i.v and p.o, 10 mg/kg) using the same vehicle (i.e., 20% Tween 80).

[3] = Metabolism in rat liver microsome (HPLC/MS); type: in vitro ADME; conditions: 5 minutes to 1 hour
Description: as §1, §2

[4] = test system: 293; conditions: 293, Renal
Description: (§4) Cytotoxicity of COMPOUND 3 (an analog of COMPOUND 1, FIG. 1A) and other anticancer therapeutics were measured using cancer cells with various origins.

[5] = test system: MCF7; conditions: MCF7, Breast
Description: as §4

[6] = test system: RPM17951; conditions: RPM17951, Melanoma
Description: as §4

[7] = test system: HL60; conditions: HL60, Leukemia
Description: as §4

[8] = test system: PC3; conditions: PC3, Prostate
Description: as §4

[9] = test system: A549; conditions: A549, Lung
Description: as §4

[10] = test system: Min mouse; assay: Polyp number in Min mouse model; type: in vivo
Description: COMPOUND 4, COMPOUND 5, or vehicle was administrated in wild type and Min mice. COMPOUND 4 is also an analog of COMPOUND 1 (FIG. 1A). The numbers of polyp formed in small intestine and colon of these mice after various treatments were measured (Table 6).

[11] = Bioavailability study in mouse; type: in vivo; conditions: i.v and p.o, 10 mg/kg, 20% Tween 80
Description: as §3

Bioavailability [11] [%] | SMILES | Metabolites observed [1] | Bioavailability [2] | Metabolites observed [3] | Cytotoxicity [4] [µg/mL] | Cytotoxicity [5] [µg/mL] | Cytotoxicity [6] [µg/mL] | Cytotoxicity [7] [µg/mL] | Cytotoxicity [8] [µg/mL] | Cytotoxicity [9] [µg/mL] | Effect on number of polyp compared to vehicle control ([10]; Min mice, about 300 mpk) | Polyp Number (Mean + S.D.), Total ([10]; Min mouse) | Polyp Number (Mean + S.D.), Colon ([10]; Min mouse, 100 mpk) | Polyp Number (Mean + S.D.), Small intestine ([10]; Min mouse, 100 mpk) | Polyp Number (Mean + S.D.), Colon ([10]; Min mouse, 300 mpk) | Polyp Number (Mean + S.D.), Small intestine ([10]; Min mouse, 300 mpk) | Polyp Number (Mean + S.D.), Total ([10]; Min mouse, 300 mpk) | % Inhibition vs. VH ([10]; Min mouse, 300 mpk, total polyp number vs. vehicle) [%]
 | CN1CC(=O)N2C(Cc3ccc(O)cc3)C(=O)N(Cc3cccc4ccccc34)CC2N1C(=O)NCc1ccccc1 (stereo not drawn) [COMPOUND 3] | Several metabolites (e.g., M1, M2, M3) were observed | about 24% | Several metabolites (e.g., M1, M2, M3) were observed | 0.731 | 7.355 | 0.936 | 1.243 | 1.207 | 1.386 |  |  |  |  |  |  |  | 
~0 | CN1CC(=O)N2C(Cc3ccc(O)cc3)C(=O)N(Cc3ccc(F)cc3F)CC2N1C(=O)NCc1ccccc1 (stereo not drawn) [COMPOUND 5] |  |  |  |  |  |  |  |  |  | reduce the number of polyp | 71.4 ± 23.0 | 1.7 ± 1.5 | 69.2 ± 20.8 | 1.1 ± 1.2 | 46.1 ± 17.1 | 47.0 ± 16.9 | 31
